Read-outs that look alike come from different tables or passages of the source.
Assays:
Format in all cases: cell-based
[1] = biological target: T1, CDK4-NanoLuc fusion with CCND1 in 293T or 293 cells (Homo sapiens, UniProt P11802); assay: NanoBRET Target Engagement (TE) Intracellular Kinase Assay, CDK4/CCND1; conditions: NanoBRET TE intracellular kinase assay, 2-hour incubation, read-out: NanoBRET-CDK4/D1 IC50
T1 construct: host or cells: 293T (ATCC CRL-3216) or 293 (ATCC CRL-1573)

[2] = biological target: T2, CDK1-NanoLuc fusion with CCNB1 in 293T or 293 cells (Homo sapiens, UniProt P06493); assay: NanoBRET Target Engagement (TE) Intracellular Kinase Assay, CDK1/CCNB1; conditions: NanoBRET TE intracellular kinase assay, 2-hour incubation, read-out: NanoBRET-CDK1/B1 IC50
T2 construct: host or cells: 293T (ATCC CRL-3216) or 293 (ATCC CRL-1573)
Experimental: Inhibitory effects of compounds were measured in NanoBRET TE Intracellular Kinase Assay. 293T (ATCC; CRL-3216) or 293 (ATCC; CRL-1573) cell lines were maintained in 90% DMEM and 10% fetal bovine serum at 37° C., 5% CO2, and 95% relative humidity. Cells were trypsinized and resuspended in assay media (99% Opti-MEM I Reduced Serum Medium, no phenol red, and 1% fetal bovine serum). Cells were co-transfected with 1 μg/mL of CDK-NanoLuc Fusion Vector (Promega; NV2701 for CDK1, NV2781 for CDK2, NV2811 for CDK4, NV2841 for CDK6) and 1 μg/mL of the corresponding Cyclin Expression Vector (Promega; NV2601 for CCNB1, NV2641 for CCNE1, NV2621 for CCND1, NV2631 for CCND3) using FuGENE HD Transfection Reagent (Promega; E2311). 40 uL/well of cells with transfection mixture were seeded in 384-well plates at 1.25×10^5 to 2×10^5 cells/mL and incubated for 24 hours at 37° C., 5% CO2, and 95% relative humidity. On the next day, 100 nL of 100 μM NanoBRET Tracer K-10 (Promega; N2640) and 40 nL of 1000× test compounds prepared in DMSO were added to the cells in each well of 384-well plates for a 2-hour incubation at 37° C., 5% CO2, and 95% relative humidity. 20 uL/well of 3× Intracellular TE Nano-Glo Substrate/Inhibitor (Promega; N2162) were added to 384-well plates and incubated for 3 minutes at room temperature. NanoBRET signals (donor emission wavelength at 450 nm, acceptor emission wavelength at 610 nm) were measured using Envision plate reader (PerkinElmer). NanoBRET ratio was calculated by: BRET Ratio=raw signal for acceptor/raw signal for donor. Dose response curve normalized to DMSO control was plotted using four-parameter logistic model for IC50 calculation.

[3] = biological target: T3, CDK2-NanoLuc fusion with CCNE1 in 293T or 293 cells (Homo sapiens, UniProt P24941); assay: NanoBRET Target Engagement (TE) Intracellular Kinase Assay, CDK2/CCNE1; conditions: NanoBRET TE intracellular kinase assay, 2-hour incubation, read-out: NanoBRET-CDK2/E1 IC50
T3 construct: host or cells: 293T (ATCC CRL-3216) or 293 (ATCC CRL-1573)

[4] = tested on: Phospho-Rb Ser807/811 in OVCAR3 cells; assay: OVCAR3 Phospho-Rb Ser807/811 HTRF assay; conditions: OVCAR3 cells, Phospho-Rb Ser807/811 HTRF, 1 hour incubation, read-out: pRb-OVCAR3 IC50
Experimental: Cells were trypsinized and resuspended in 1 mM hydroxyurea (Sigma; H8627), 90% RPMI and 10% fetal bovine serum. […] Dose response curve normalized to DMSO control was plotted using four-parameter logistic model for IC50 calculation.

T2 sequence (P06493 whole entry, the tested form may be a part): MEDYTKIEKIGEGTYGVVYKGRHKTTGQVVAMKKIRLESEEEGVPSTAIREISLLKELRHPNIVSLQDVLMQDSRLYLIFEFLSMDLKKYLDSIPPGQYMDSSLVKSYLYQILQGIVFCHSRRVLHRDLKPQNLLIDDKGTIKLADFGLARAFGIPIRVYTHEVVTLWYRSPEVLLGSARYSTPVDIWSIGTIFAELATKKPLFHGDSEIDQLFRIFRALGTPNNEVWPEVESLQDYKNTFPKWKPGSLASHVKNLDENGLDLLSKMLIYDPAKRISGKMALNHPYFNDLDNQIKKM
T2 sequence (P14635 whole entry partner, the tested form may be a part): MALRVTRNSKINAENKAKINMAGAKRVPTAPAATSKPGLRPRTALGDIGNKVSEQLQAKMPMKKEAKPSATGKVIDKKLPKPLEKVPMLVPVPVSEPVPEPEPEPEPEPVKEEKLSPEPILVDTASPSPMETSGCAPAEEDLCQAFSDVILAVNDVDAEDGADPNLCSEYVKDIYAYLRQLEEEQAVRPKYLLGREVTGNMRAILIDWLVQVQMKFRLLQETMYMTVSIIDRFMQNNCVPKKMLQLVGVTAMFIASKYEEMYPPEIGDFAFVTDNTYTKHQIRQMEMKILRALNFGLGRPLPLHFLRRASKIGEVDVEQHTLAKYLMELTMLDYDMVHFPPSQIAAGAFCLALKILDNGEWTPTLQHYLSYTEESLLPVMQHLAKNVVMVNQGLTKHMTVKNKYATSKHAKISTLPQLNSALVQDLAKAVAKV
T1 sequence (P11802 whole entry, the tested form may be a part): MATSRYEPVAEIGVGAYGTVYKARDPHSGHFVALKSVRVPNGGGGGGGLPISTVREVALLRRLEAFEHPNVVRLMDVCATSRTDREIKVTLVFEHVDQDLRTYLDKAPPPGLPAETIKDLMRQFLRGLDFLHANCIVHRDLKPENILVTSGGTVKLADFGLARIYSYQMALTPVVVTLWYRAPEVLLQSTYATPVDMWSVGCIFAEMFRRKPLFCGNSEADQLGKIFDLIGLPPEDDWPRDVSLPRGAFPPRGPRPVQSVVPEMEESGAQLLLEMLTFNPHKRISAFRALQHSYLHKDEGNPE
T1 sequence (P24385 whole entry partner, the tested form may be a part): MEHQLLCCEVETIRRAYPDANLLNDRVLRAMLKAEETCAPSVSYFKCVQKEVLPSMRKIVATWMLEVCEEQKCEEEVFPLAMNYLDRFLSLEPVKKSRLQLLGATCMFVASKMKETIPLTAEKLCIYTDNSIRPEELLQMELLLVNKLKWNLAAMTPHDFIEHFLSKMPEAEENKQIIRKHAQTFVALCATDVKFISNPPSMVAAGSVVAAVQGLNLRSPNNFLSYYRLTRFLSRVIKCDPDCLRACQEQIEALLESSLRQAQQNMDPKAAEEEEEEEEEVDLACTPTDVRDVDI

IC50 [1] | IC50 [2] | IC50 [3] | IC50 ([4]; Homo sapiens, OVCAR-3, 1 h) | IC50 [4] | SMILES
4370 nM | 4.14 nM | 1.85 nM | 17.6 nM | – | COc1cc(OC)c(C=O)c(OCC(=O)Nc2cc([C@H]3C[C@@H](OC(=O)N4CCC4(C)C)C3)[nH]n2)c1 [Compound 109, (1s,3s)-3-(3-(2-(2-formyl-3,5-dimethoxyphenoxy)acetamido)-1H-pyrazol-5-yl)cyclobutyl 2,2-dimethylazetidine-1-carboxylate]
576 nM | 264 nM | 10.6 nM | 542 nM | – | CC(=O)Nc1ccc(C(=O)Nc2cc([C@H]3CC[C@@H](OC(=O)NC(C)C)C3)[nH]n2)cc1C=O [Compound 38, (1R,3S)-3-[5-(4-acetamido-3-formylbenzamido)-2H-pyrazol-3-yl]cyclopentyl N-isopropylcarbamate]
> 10000 nM | 13.1 nM | 4.13 nM | – | 65.6 nM | COc1cc(O)c(C=O)c(OCC(=O)Nc2cc([C@H]3C[C@@H](OC(=O)NC(C)C)C3)[nH]n2)c1 [Compound 223]
3330 nM | 15.4 nM | 4.3 nM | 306 nM | – | COc1cccc(-c2cc(C(=O)Nc3cc([C@H]4CC[C@@H](OC(=O)NC(C)C)C4)[nH]n3)n(C)n2)c1C=O [Compound 106, (1R,3S)-3-{5-[5-(2-formyl-3-methoxyphenyl)-2-methylpyrazole-3-amido]-2H-pyrazol-3-yl}cyclopentyl N-isopropylcarbamate; trifluoroacetic acid]
> 10000 nM | 41.6 nM | 5.67 nM | 70.5 nM | – | COc1cc(O)c(C=O)c(OCC(=O)Nc2cc([C@H]3CC[C@@H](OC(=O)NC[C@@H](C)OC)C3)[nH]n2)c1 [Compound 202]
3870 nM | 5.94 nM | 6.55 nM | 28.7 nM | – | COCC1(NC(=O)O[C@@H]2CC[C@H](c3cc(NC(=O)COc4cc(OC)cc(O)c4C=O)n[nH]3)C2)CC1 [Compound 209]
575 nM | 106 nM | 20.2 nM | 1950 nM | – | CC(C)NC(=O)O[C@@H]1CC[C@H](c2cc(NC(=O)COc3cc(F)cc(O)c3C=O)n[nH]2)C1 [Compound 248]
– | 20.3 nM | 3.76 nM | 68.9 nM | – | CC(C)NC(=O)O[C@@H]1CC[C@H](c2cc(NC(=O)[C@@H]3Cc4ccc(O)c(C=O)c4C3)n[nH]2)C1 [Compound 256]
1450 nM | 126 nM | 11.1 nM | – | – | CC(C)NC(=O)O[C@@H]1CC[C@H](c2cc(NC(=O)CCCc3cccc(O)c3C=O)n[nH]2)C1 [Compound 12, 1R,3S)-3-(3-(4-(2-formyl-3-hydroxyphenyl)butanamido)-1H-pyrazol-5-yl)cyclopentyl isopropylcarbamate]
> 10000 nM | 8060 nM | 649 nM | – | – | CC(C)NC(=O)O[C@@H]1CC[C@H](c2cc(NC(=O)CNc3cccc(O)c3C=O)n[nH]2)C1 [Compound 259]
236 nM | – | 2.01 nM | 12.6 nM | – | COc1cc(O)c(C=O)c2c1CC(C(=O)Nc1cc([C@H]3CC[C@@H](OC(=O)NC(C)(C)C)C3)[nH]n1)C2 (single isomer, unassigned) [Compound 283, (1R,3S)-3-(3-((*)-4-formyl-5-hydroxy-7-methoxy-2,3-dihydro-1H-indene-2-carboxamido)-1H-pyrazol-5-yl)cyclopentyl tert-butylcarbamate]
5340 nM | – | 3.99 nM | 34.2 nM | – | COc1cc(O)c(C=O)c(OCC(=O)Nc2cc([C@H]3CC[C@@H](OC(=O)N(O)C(C)C)C3)[nH]n2)c1 [Compound 173]
132 nM | – | 15.5 nM | – | 567 nM | COc1cc(O)c(C=O)c2c1CC(C(=O)Nc1cc([C@H]3CC[C@@H](OC(=O)NN(C)CC(F)(F)F)C3)[nH]n1)C2 (single isomer, unassigned) [Compound 265, (1R,3S)-3-(3-((*)-4-formyl-5-hydroxy-7-methoxy-2,3-dihydro-1H-indene-2-carboxamido)-1H-pyrazol-5-yl)cyclopentyl 2-methyl-2-(2,2,2-trifluoroethyl)hydrazine-1-carboxylate]
– | 21.7 nM | 2.78 nM | 94.5 nM | – | CC(C)NC(=O)O[C@@H]1CC[C@H](c2cc(NC(=O)[C@@H]3Cc4ccc(O)c(C=O)c4C3)n[nH]2)C1 [Compound 26, (1R,3S)-3-{5-[(2R)-4-formyl-5-hydroxy-2,3-dihydro-1H-indene-2-amido]-2H-pyrazol-3-yl}cyclopentyl N-isopropylcarbamate]
> 10000 nM | – | 10.3 nM | 167 nM | – | COc1cc(O)c(C=O)c(OCC(=O)Nc2cc([C@H]3CC[C@@H](OC(=O)NCc4ccccn4)C3)[nH]n2)c1 [Compound 166]
4940 nM | – | 10.8 nM | – | 85.9 nM | COc1cc(O)c(C=O)c2c1CC(C(=O)Nc1cc([C@H]3CC[C@@H](OC(=O)NN(C)C)C3)n[nH]1)C2 (single isomer, unassigned) [Compound 268, (1R,3S)-3-(3-((*)-4-formyl-5-hydroxy-7-methoxy-2,3-dihydro-1H-indene-2-carboxamido)-1H-pyrazol-5-yl)cyclopentyl 2,2-dimethylhydrazine-1-carboxylate]
1450 nM | – | 1.5 nM | 20.6 nM | – | CC[C@H](C)NC(=O)O[C@@H]1CC[C@H](c2cc(NC(=O)COc3cc(OC)cc(O)c3C=O)n[nH]2)C1 [Compound 184]
> 10000 nM | – | 445 nM | 363 nM | – | COc1cc(O)c(C=O)c(OCC(=O)Nc2cc([C@H]3CC[C@@H](OC(=O)NC4CN(C)C4)C3)[nH]n2)c1 [Compound 185]
3800 nM | – | 3.26 nM | 37.1 nM | – | COc1cc(O)c(C=O)c(OCC(=O)Nc2cc([C@H]3CC[C@@H](OC(=O)N[C@@H](C)C(F)F)C3)[nH]n2)c1 [Compound 134]
6300 nM | – | 10.2 nM | 27.7 nM | – | COc1cc(O)c(C=O)c(OCC(=O)Nc2cc([C@H]3CC[C@@H](OC(=O)N[C@@H](C)CC#N)C3)[nH]n2)c1 [Compound 163]
> 10000 nM | – | 25 nM | 127 nM | – | COc1cc(O)c(C=O)c(OCC(=O)Nc2cc([C@H]3CC[C@@H](OC(=O)N4CC5(CCN5C)C4)C3)[nH]n2)c1 [Compound 191]
1240 nM | – | 1.94 nM | 16.3 nM | – | CCOc1cc(O)c(C=O)c(OCC(=O)Nc2cc([C@H]3CC[C@@H](OC(=O)NC4(C)CC4)C3)[nH]n2)c1 [Compound 115]
7920 nM | – | 12.8 nM | 383 nM | – | COc1cc(O)c(C=O)c(OCC(=O)Nc2cc([C@H]3CC[C@@H](OC(=O)Nc4ccncc4)C3)[nH]n2)c1 [Compound 165]
1540 nM | – | 3.12 nM | 53.4 nM | – | COc1cc(O)c(C=O)c(OCC(=O)Nc2cc([C@H]3CC[C@@H](OC(=O)N4C[C@H](F)C[C@@H]4C)C3)n[nH]2)c1 [Compound 125]
> 10000 nM | – | 4.32 nM | 63.9 nM | – | CNN(C)C(=O)O[C@@H]1CC[C@H](c2cc(NC(=O)COc3cc(OC)cc(O)c3C=O)n[nH]2)C1 [Compound 279, (1R,3S)-3-(3-(2-(2-formyl-3-hydroxy-5-methoxyphenoxy)acetamido)-1H-pyrazol-5-yl)cyclopentyl 1,2-dimethylhydrazine-1-carboxylate]
1580 nM | – | 2.68 nM | 23.5 nM | – | CCN(CC)C(=O)O[C@@H]1CC[C@H](c2cc(NC(=O)COc3cc(OC)cc(O)c3C=O)n[nH]2)C1 [Compound 180]
7860 nM | – | 2.31 nM | 26.4 nM | – | COc1cc(O)c(C=O)c(OCC(=O)Nc2cc([C@H]3CC[C@@H](OC(=O)N[C@H](C)CC(F)F)C3)[nH]n2)c1 [Compound 119]

Source: patent publication US20250289789A1, “REVERSIBLE LYSINE COVALENT MODIFIERS OF CDK2 AND USES THEREOF” (Terremoto Biosciences, Inc., priority 2023, published 2025)
